This experiment has as its target T1, Leukotriene A-4 hydrolase (Homo sapiens, UniProt P09960).
T1 sequence (P09960 whole entry): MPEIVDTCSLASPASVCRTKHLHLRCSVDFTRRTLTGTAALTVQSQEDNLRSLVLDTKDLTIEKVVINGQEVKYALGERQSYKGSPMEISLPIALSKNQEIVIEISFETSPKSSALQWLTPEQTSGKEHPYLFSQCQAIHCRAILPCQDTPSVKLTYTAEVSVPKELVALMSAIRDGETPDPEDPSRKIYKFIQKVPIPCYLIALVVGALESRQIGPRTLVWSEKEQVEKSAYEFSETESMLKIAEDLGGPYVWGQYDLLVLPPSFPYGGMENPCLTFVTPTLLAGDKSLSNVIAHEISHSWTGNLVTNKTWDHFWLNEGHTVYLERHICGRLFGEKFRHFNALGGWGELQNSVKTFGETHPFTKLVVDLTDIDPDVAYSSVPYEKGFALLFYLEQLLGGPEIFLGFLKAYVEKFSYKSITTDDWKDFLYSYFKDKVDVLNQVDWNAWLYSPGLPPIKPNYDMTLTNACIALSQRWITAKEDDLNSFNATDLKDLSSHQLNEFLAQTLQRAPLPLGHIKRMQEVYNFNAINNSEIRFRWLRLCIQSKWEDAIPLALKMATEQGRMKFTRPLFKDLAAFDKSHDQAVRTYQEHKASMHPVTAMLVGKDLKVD
Description: Homogenous Time Resolved Fluorescence Assay. The text has this: The hydrolase-homogeneous time resolved fluorescence assay is a two-step assay that measures the hydrolysis of LTA4 to LTB4 by analyzing the amount of LTB4 produced. The first step involves the enzymatic conversion of LTA4 to LTB4 and the second step involves the quantification of the LTB4 formed with a homogeneous time resolved fluorescence assay.

Among the data in BindingDB's records for patent US20240398793 (Celltaxis, 2024) are IC50 values, retold here.

As a reminder, the IC50 is the midpoint of a concentration-inhibition curve. Lower therefore signals higher potency. Compound `COc1cc(O)cc(CCc2cccc(O)c2)c1` [Batatasin III (4)] registered an IC50 of 1.7 µM.
Under `CC(=O)Oc1ccc(/C=C/c2cc(OC(C)=O)cc(OC(C)=O)c2)cc1` [US20240398793, Compound 4] stands 38.6 µM; under `COc1cc(O)cc(/C=C/c2ccc(O)cc2)c1` [US20240398793, Compound 5], 3.9 µM; under `COc1cc(O)cc(CCc2ccc(O)cc2)c1` [US20240398793, Compound 6], 6.4 µM.
Under `CCOc1cc(O)cc(CCc2ccc(O)cc2)c1` [US20240398793, Compound 7] stands 3.2 µM; under `COc1cc(O)cc(CCc2ccccc2O)c1` [US20240398793, Compound 9], 0.5 µM.
In turn, `O=C(Cc1ccc(O)cc1)c1ccc(O)cc1O` [US20240398793, Compound 10] gave an IC50 of 34.2 µM.
In turn, `O=c1c(-c2ccc(O)cc2)coc2cc(O)ccc12` [US20240398793, Compound 11] had a 50% inhibitory concentration (IC50) of 15 µM.
Under `O=c1c(-c2ccccc2)coc2cc(O)ccc12` [US20240398793, Compound 13] stands 48.2 µM; under `Cc1ccc2c(=O)c(-c3ccc(O)cc3)coc2c1O` [US20240398793, Compound 15], 1.2 µM.
